Measurements: patent US20180098969A1, “HODGKIN LYMPHOMA THERAPY” (Purdue Pharmaceutical Products L.P., priority 2016, published 2018)

Tests used:
[1] = tested on: L428 cells; test: Xenograft in NSG mice, CD30 immunofluorescence of cytospin slides; format: in vivo; set-up: key to Spleen, red pulp activation, diffuse / Liver, Tumour cell infiltration: “0”=without any staining; “1”=minimal, <1% staining; “2”=mild, 1% staining; “3”=moderate, <10% staining; “4”=marked, 10-40% staining; “5”=severe, >40% of cells staining; settings: for Bone Marrow: Tumour infiltration: Marked / Bone Marrow: Tumour infiltration: Mild / Bone Marrow: Tumour infiltration: Minimal / Bone Marrow: Tumour infiltration: Moderate / Bone Marrow: Tumour infiltration: No / Bone Marrow: Tumour infiltration: Overall / Bone Marrow: Tumour infiltration: Severe / Injection site: Tumour infiltration: Marked / Injection site: Tumour infiltration: Mild / Injection site: Tumour infiltration: Minimal / Injection site: Tumour infiltration: Moderate / Injection site: Tumour infiltration: No / Injection site: Tumour infiltration: Overall / Injection site: Tumour infiltration: Severe / Liver: Tumour infiltration: Marked / Liver: Tumour infiltration: Mild / Liver: Tumour infiltration: Minimal / Liver: Tumour infiltration: Moderate / Liver: Tumour infiltration: No / Liver: Tumour infiltration: Overall / Liver: Tumour infiltration: Severe / Spleen: Tumour infiltration: Marked / Spleen: Tumour infiltration: Mild / Spleen: Tumour infiltration: Minimal / Spleen: Tumour infiltration: Moderate / Spleen: Tumour infiltration: No / Spleen: Tumour infiltration: Overall / Spleen: Tumour infiltration: Severe / Tumour presence: Overall: % of mice
Source text: Immunodeficient NOD-SCID-gammac−/− (NSG) mice aged 5 to 6 weeks were purchased from Charles River (NOD.Cg-Prkdcscid Il2rgtm1Wjl/SzJ). The mice arrived two weeks before the beginning of the experiments and were housed in micro-isolator cages during the entire course of the study. Immediately prior to the injection of Hodgkin lymphoma cells, mice were exposed to 3 Gy gamma irradiation using an IBL637 ^137Cs irradiator at a dose rate of 0.61 Gy/min. From 10^3 to 10^6 cells, either from the original cell lines or following amplification, were injected intravenously via the retro-orbital sinus. The mice were sacrificed by cervical dislocation and different organs were analysed and tumoural infiltration examined using multiple techniques.
Two independent experiments were performed to investigate the dose-effect of EDO-S101 in NSG mice eight weeks after xenografting with L428 cells as in Example 8. The aim of the protocol shown in FIG. […]
The mice were sacrificed by cervical dislocation. The sampled organs consisted of the eyes (site of injection), liver, spleen and bone marrow. Following dissection of different organs, including tumours, the first portion was used for flow cytometry (FACS) and cytogenetic analyses while the second was fixed in 4% paraformaldehyde (PFA) for immunohistochemistry (IHC). To obtain a single cell suspension, the tissues were first cut into pieces. Thereafter, the cells were physically disaggregated using an 80 μm nylon cell strainer and filtered a second time through a 70 μm nylon cell strainer (BD Biosciences, Erembodegem, Belgium).
Cells were cytospun onto poly-L-lysine-coated glass slides at 700 rpm for 4 min, fixed with 10% formalin for 10 min, and treated with 0.25% Triton X-100 solution for 10 min. After blocking with 5% bovine serum albumin (Sigma), the cells were incubated with an anti-CD30 antibody (DAKO A/S, Glostrup, Denmark). Then, cells were treated with Cyanine 3 anti-mouse IgG (Invitrogen, Carlsbad, Calif.). As a negative control, staining was carried out in the absence of primary antibody. The L428-s cell line served as positive control.
Individual microscopic findings following immunofluorescence CD30 staining of cytopsin slides: “0”=without any staining; “1”=minimal, <1% staining; “2”=mild, 1% staining; “3”=moderate, <10% staining; “4”=marked, 10-40% staining; “5”=severe, >40% of cells staining.

[2] = tested on: L540 cell line; test: Clonogenic survival in methylcellulose; format: cell-based, human; settings: any dose (0.1 to 20 μmol)
Protocol: In all examples, the human Hodgkin lymphoma-derived cell lines L428, L428-c, KMH2, L591, L540, L1236, HDLM2 and SUP-HD were obtained from Dr Steffen Junker (Aarhus University Denmark). All cell lines were cultured in Gibco RPMI 1640 medium supplemented with Glutamax, 10% FBS and antibiotics at 37° C. […] The immunophenotype, P53 status and MSI characterization of the Hodgkin lymphoma cell lines was determined using anti-CD30, CD15, CD20 and CD14 antibodies.
This test was performed on four Hodgkin lymphoma cell lines (L428, L428s, KMH2 and L540). Each was cultured with EDO-S101 at doses of 0, 0.1, 0.5, 1, 10 and 20 μmol in DMSO. The cell lines were cultured in methylcellulose (Stem cell Technologies) at a concentration of 10^5/ml at 37° C. and 5% CO2. The surviving fraction was determined by measuring the viability of colonies generated before and after exposure. Only colonies with more than 50 cells were counted. Each data point represents the average and SD from three independent experiments performed in triplicate.

Cn1c(CCCCCCC(=O)NO)nc2cc(N(CCCl)CCCl)ccc21 [EDO-S101]
Bone Marrow: Tumour infiltration: Marked ([1]; 80 mg/kg): 0.0%
Bone Marrow: Tumour infiltration: Mild ([1]; 80 mg/kg): 0.0%
Bone Marrow: Tumour infiltration: Minimal ([1]; 80 mg/kg): 33.3%
Bone Marrow: Tumour infiltration: Moderate ([1]; 80 mg/kg): 0.0%
Bone Marrow: Tumour infiltration: No ([1]; 80 mg/kg): 33.3%
Bone Marrow: Tumour infiltration: Overall ([1]; 80 mg/kg): 33.3%
Bone Marrow: Tumour infiltration: Severe ([1]; 80 mg/kg): 0.0%
Injection site: Tumour infiltration: Marked ([1]; 80 mg/kg): 0.0%
Injection site: Tumour infiltration: Mild ([1]; 80 mg/kg): 33.3%
Injection site: Tumour infiltration: Minimal ([1]; 80 mg/kg): 0.0%
Injection site: Tumour infiltration: Moderate ([1]; 80 mg/kg): 0.0%
Injection site: Tumour infiltration: No ([1]; 80 mg/kg): 0.0%
Injection site: Tumour infiltration: Overall ([1]; 80 mg/kg): 33.3%
Injection site: Tumour infiltration: Severe ([1]; 80 mg/kg): 0.0%
Liver: Tumour infiltration: Marked ([1]; 80 mg/kg): 0.0%
Liver: Tumour infiltration: Mild ([1]; 80 mg/kg): 0.0%
Liver: Tumour infiltration: Minimal ([1]; 80 mg/kg): 0.0%
Liver: Tumour infiltration: Moderate ([1]; 80 mg/kg): 0.0%
Liver: Tumour infiltration: No ([1]; 80 mg/kg): 100.0%
Liver: Tumour infiltration: Overall ([1]; 80 mg/kg): 0.0%
Liver: Tumour infiltration: Severe ([1]; 80 mg/kg): 0.0%
Spleen: Tumour infiltration: Marked ([1]; 80 mg/kg): 0.0%
Spleen: Tumour infiltration: Mild ([1]; 80 mg/kg): 0.0%
Spleen: Tumour infiltration: Minimal ([1]; 80 mg/kg): 0.0%
Spleen: Tumour infiltration: Moderate ([1]; 80 mg/kg): 0.0%
Spleen: Tumour infiltration: No ([1]; 80 mg/kg): 33.3%
Spleen: Tumour infiltration: Overall ([1]; 80 mg/kg): 0.0%
Spleen: Tumour infiltration: Severe ([1]; 80 mg/kg): 0.0%
Tumour presence: Overall ([1]; 80 mg/kg): 66.7%
Bone Marrow: Tumour infiltration: Marked ([1]; 1 * 60 mg/kg): 0.0%
Bone Marrow: Tumour infiltration: Mild ([1]; 1 * 60 mg/kg): 0.0%
Bone Marrow: Tumour infiltration: Minimal ([1]; 1 * 60 mg/kg): 25.0%
Bone Marrow: Tumour infiltration: Moderate ([1]; 1 * 60 mg/kg): 0.0%
Bone Marrow: Tumour infiltration: No ([1]; 1 * 60 mg/kg): 0.0%
Bone Marrow: Tumour infiltration: Overall ([1]; 1 * 60 mg/kg): 25.0%
Bone Marrow: Tumour infiltration: Severe ([1]; 1 * 60 mg/kg): 0.0%
Injection site: Tumour infiltration: Marked ([1]; 1 * 60 mg/kg): 75.0%
Injection site: Tumour infiltration: Mild ([1]; 1 * 60 mg/kg): 0.0%
Injection site: Tumour infiltration: Minimal ([1]; 1 * 60 mg/kg): 0.0%
Injection site: Tumour infiltration: Moderate ([1]; 1 * 60 mg/kg): 25.0%
Injection site: Tumour infiltration: No ([1]; 1 * 60 mg/kg): 0.0%
Injection site: Tumour infiltration: Overall ([1]; 1 * 60 mg/kg): 100.0%
Injection site: Tumour infiltration: Severe ([1]; 1 * 60 mg/kg): 0.0%
Liver: Tumour infiltration: Marked ([1]; 1 * 60 mg/kg): 0.0%
Liver: Tumour infiltration: Mild ([1]; 1 * 60 mg/kg): 0.0%
Liver: Tumour infiltration: Minimal ([1]; 1 * 60 mg/kg): 50.0%
Liver: Tumour infiltration: Moderate ([1]; 1 * 60 mg/kg): 25.0%
Liver: Tumour infiltration: No ([1]; 1 * 60 mg/kg): 25.0%
Liver: Tumour infiltration: Overall ([1]; 1 * 60 mg/kg): 75.0%
Liver: Tumour infiltration: Severe ([1]; 1 * 60 mg/kg): 0.0%
Spleen: Tumour infiltration: Marked ([1]; 1 * 60 mg/kg): 0.0%
Spleen: Tumour infiltration: Mild ([1]; 1 * 60 mg/kg): 0.0%
Spleen: Tumour infiltration: Minimal ([1]; 1 * 60 mg/kg): 0.0%
Spleen: Tumour infiltration: Moderate ([1]; 1 * 60 mg/kg): 0.0%
Spleen: Tumour infiltration: No ([1]; 1 * 60 mg/kg): 25.0%
Spleen: Tumour infiltration: Overall ([1]; 1 * 60 mg/kg): 0.0%
Spleen: Tumour infiltration: Severe ([1]; 1 * 60 mg/kg): 0.0%
Tumour presence: Overall ([1]; 1 * 60 mg/kg): 100.0%
Bone marrow ([1]; 1 * 60 mg/kg, individual mice): 1 (“1”=minimal, <1% staining)
Spleen, red pulp activation, diffuse ([1]; 1 * 60 mg/kg, individual mice): 0
Eye and/or periocular mucosa, periocular tumour cell infiltration, focal/multifocal/diffuse ([1]; 1 * 80 mg/kg, individual mice): 2 (“2”=mild, 1% staining)
Liver, Tumour cell infiltration ([1]; 1 * 80 mg/kg, individual mice): 0
Spleen, red pulp activation, diffuse ([1]; 1 * 80 mg/kg, individual mice): 0
Bone Marrow: Tumour infiltration: Marked ([1]; 2 * 60 mg/kg): 0.0%
Bone Marrow: Tumour infiltration: Mild ([1]; 2 * 60 mg/kg): 0.0%
Bone Marrow: Tumour infiltration: Minimal ([1]; 2 * 60 mg/kg): 55.6%
Bone Marrow: Tumour infiltration: Moderate ([1]; 2 * 60 mg/kg): 0.0%
Bone Marrow: Tumour infiltration: No ([1]; 2 * 60 mg/kg): 22.2%
Bone Marrow: Tumour infiltration: Overall ([1]; 2 * 60 mg/kg): 55.6%
Bone Marrow: Tumour infiltration: Severe ([1]; 2 * 60 mg/kg): 0.0%
Injection site: Tumour infiltration: Marked ([1]; 2 * 60 mg/kg): 0.0%
Injection site: Tumour infiltration: Mild ([1]; 2 * 60 mg/kg): 11.1%
Injection site: Tumour infiltration: Minimal ([1]; 2 * 60 mg/kg): 0.0%
Injection site: Tumour infiltration: Moderate ([1]; 2 * 60 mg/kg): 0.0%
Injection site: Tumour infiltration: No ([1]; 2 * 60 mg/kg): 0.0%
Injection site: Tumour infiltration: Overall ([1]; 2 * 60 mg/kg): 11.1%
Injection site: Tumour infiltration: Severe ([1]; 2 * 60 mg/kg): 0.0%
Liver: Tumour infiltration: Marked ([1]; 2 * 60 mg/kg): 0.0%
Liver: Tumour infiltration: Mild ([1]; 2 * 60 mg/kg): 11.1%
Liver: Tumour infiltration: Minimal ([1]; 2 * 60 mg/kg): 44.4%
Liver: Tumour infiltration: Moderate ([1]; 2 * 60 mg/kg): 0.0%
Liver: Tumour infiltration: No ([1]; 2 * 60 mg/kg): 44.4%
Liver: Tumour infiltration: Overall ([1]; 2 * 60 mg/kg): 55.6%
Liver: Tumour infiltration: Severe ([1]; 2 * 60 mg/kg): 0.0%
Spleen: Tumour infiltration: Marked ([1]; 2 * 60 mg/kg): 0.0%
Spleen: Tumour infiltration: Mild ([1]; 2 * 60 mg/kg): 0.0%
Spleen: Tumour infiltration: Minimal ([1]; 2 * 60 mg/kg): 44.4%
Spleen: Tumour infiltration: Moderate ([1]; 2 * 60 mg/kg): 0.0%
Spleen: Tumour infiltration: No ([1]; 2 * 60 mg/kg): 11.1%
Spleen: Tumour infiltration: Overall ([1]; 2 * 60 mg/kg): 44.4%
Spleen: Tumour infiltration: Severe ([1]; 2 * 60 mg/kg): 0.0%
Tumour presence: Overall ([1]; 2 * 60 mg/kg): 66.7%
Eye and/or periocular mucosa, periocular tumour cell infiltration, focal/multifocal/diffuse ([1]; 2 * 60 mg/kg, individual mice): 2 (“2”=mild, 1% staining)
tumour cells in organs (liver, spleen, bone marrow) ([1]; single dose of 80 mg/kg): No tumour cells were observed in any organs
clones observed [2]: No clone was observed
